Measurements published in patent publication US8334315B2, “Substituted aromatic carboxamide and urea derivatives as vanilloid receptor ligands” (Gruenenthal GmbH, priority 2009, dated 2012).

Columns and labels:
hVR1 [1] = target: T1, hVR1 (Homo sapiens, UniProt Q8NER1); assay: Functional test on VR1, FLIPR Ca2+ influx in transfected CHO K1 cells, capsaicin; format: cell-based, human being; design: key to Ki (human being) [nM] Cap: agonist / partial agonist / no effect: AG=agonist; pAG=partial agonist; NE=no effect; settings: for Ki: includes values given in brackets after pAG, read-out: Ki (human being) [nM] Cap
T1 construct: expressed in transfected cells; host or cells: CHO K1 cells (ECACC), stably transfected

hVR1 [2] = target: T1, hVR1; assay: Functional test on human VR1, NADA (N-arachidonoyl dopamine) stimulus; format: cell-based, human being; design: key to Ki (human being) NADA: agonist / partial agonist / no effect: AG=agonist; pAG=partial agonist; NE=no effect; settings: for Ki: includes values given in brackets after pAG, read-out: Ki (human being) [nM] NADA
Excerpt: II. Functional Tests Carried Out on the Vanilloid Receptor (VR1)
The agonistic or antagonistic effect of the substances to be tested on the vanilloid receptor 1 (VR1) can also be determined using the following assay. In this assay, the influx of Ca^2+ through the channel is quantified with the aid of a Ca^2+-sensitive dye (type Fluo-4, Molecular Probes Europe BV, Leiden, the Netherlands) in a fluorescent imaging plate reader (FLIPR, Molecular Devices, Sunnyvale, USA).
Chinese hamster ovary cells (CHO K1 cells, European Collection of Cell Cultures (ECACC) United Kingdom) are stably transfected with the VR1 gene. For functional testing, these cells are plated out on poly-D-lysine-coated black 96-well plates having a clear base (BD Biosciences, Heidelberg, Germany) at a density of 25,000 cells/well. The cells are incubated overnight at 37° C. and 5% CO2 in a culture medium (Ham's F12 nutrient mixture, 10% by volume of FCS (foetal calf serum), 18 μg/ml of L-proline). The next day the cells are incubated with Fluo-4 (Fluo-4 2 μM, 0.01% by volume of Pluronic F127, Molecular Probes in HBSS (Hank's buffered saline solution), Gibco Invitrogen GmbH, Karlsruhe, Germany) for 30 minutes at 37° C. Subsequently, the plates are washed three times with HBSS buffer and after further incubation for 15 minutes at RT used for Ca^2+ measurement in a FLIPR assay. The Ca^2+-dependent fluorescence is measured before and after the addition of the substances to be tested (λex wavelength=488 nm, λem=540 nm). Quantification is carried out by measuring the highest fluorescence intensity (FC, fluorescence counts) over time.
The FLIPR protocol consists of 2 substance additions. First the compounds to be tested (10 μM) are pipetted onto the cells and the Ca^2+ influx is compared with the control (capsaicin 10 μM) (% activation based on the Ca^2+ signal after the addition of 10 μM of capsaicin). […]
Desensitising agonists and antagonists led to suppression of the Ca^2+ influx. The % inhibition is calculated compared to the maximum achievable inhibition with 10 μM of capsaicin.
Starting from the percentage displacement caused by different concentrations of the compounds to be tested of general formula I, IC50 inhibitory concentrations which cause a 50-per cent displacement of capsaicin were calculated. Ki values for the test substances were obtained by conversion by means of the Cheng-Prusoff equation (Cheng, Prusoff; Biochem. Pharmacol. 22, 3099-3108, 1973).
NADA=N-arachidonoyl dopamine

[3] = target: T2, rat-species vanilloid receptor 1 (VR1/TRPV1) (Rattus norvegicus, UniProt O35433); assay: Functional testing on the vanilloid receptor 1, FLIPR Ca2+ influx in rat DRG cells, capsaicin; format: cell-based; settings: capsaicin (Cap); includes values given in brackets after pAG
T2 construct: endogenous in cells; host or cells: primary cells dissociated from rat dorsal root ganglia (DRG), cultured 2-3 days with NGF
Excerpt: I. Functional Testing Carried Out on the Vanilloid Receptor 1 (VRI/TRPV1 Receptor)
The agonistic or antagonistic effect of the substances to be tested on the rat-species vanilloid receptor 1 (VR1/TRPV1) can be determined using the following assay. In this assay, the influx of Ca^2+ through the receptor channel is quantified with the aid of a Ca^2+-sensitive dye (type Fluo-4, Molecular Probes Europe BV, Leiden, the Netherlands) in a fluorescent imaging plate reader (FLIPR, Molecular Devices, Sunnyvale, USA).
Complete medium: 50 ml HAMS F12 nutrient mixture (Gibco Invitrogen GmbH, Karlsruhe, Germany) with
10% by volume of FCS (foetal calf serum, Gibco Invitrogen GmbH, Karlsruhe, Germany, heat-inactivated);
2 mM L-glutamine (Sigma, Munich, Germany);
1% by weight of AA solution (antibiotic/antimyotic solution, PAA, Pasching, Austria) and 25 ng/ml NGF medium (2.5 S, Gibco Invitrogen GmbH, Karlsruhe, Germany)
Cell culture plate: Poly-D-lysine-coated, black 96-well plates having a clear base (96-well black/clear plate, BD Biosciences, Heidelberg, Germany) are additionally coated with laminin (Gibco Invitrogen GmbH, Karlsruhe, Germany), the laminin being diluted with PBS (Ca—Mg-free PBS, Gibco Invitrogen GmbH, Karlsruhe, Germany) to a concentration of 100 μg/ml. Aliquots having a laminin concentration of 100 μg/ml are removed and stored at −20° C. The aliquots are diluted with PBS in a ratio of 1:10 to 10 μg/ml of laminin and respectively 50 μL of the solution are pipetted into a recess in the cell culture plate. The cell culture plates are incubated for at least two hours at 37° C., the excess solution is removed by suction and the recesses are each washed twice with PBS. The coated cell culture plates are stored with excess PBS which is not removed until just before the feeding of the cells.
Preparation of the Cells:
The vertebral column is removed from decapitated rats and placed immediately into cold HBSS buffer (Hank's buffered saline solution, Gibco Invitrogen GmbH, Karlsruhe, Germany), i.e. buffer located in an ice bath, mixed with 1% by volume (per cent by volume) of an AA solution (antibiotic/antimyotic solution, PAA, Pasching, Austria). The vertebral column is cut longitudinally and removed together with fasciae from the vertebral canal. Subsequently, the dorsal root ganglia (DRG) are removed and again stored in cold HBSS buffer mixed with 1% by volume of an AA solution. The DRG, from which all blood remnants and spinal nerves have been removed, are transferred in each case to 500 μL of cold type 2 collagenase (PAA, Pasching, Austria) and incubated for 35 minutes at 37° C. After the addition of 2.5% by volume of trypsin (PAA, Pasching, Austria), incubation is continued for 10 minutes at 37° C. After complete incubation, the enzyme solution is carefully pipetted off and 500 μL of complete medium are added to each of the remaining DRG. The DRG are respectively suspended several times, drawn through cannulae No. 1, No. 12 and No. 16 using a syringe and transferred to a 50 ml Falcon tube which is filled up to 15 ml with complete medium. The contents of each Falcon tube are respectively filtered through a 70 μm Falcon filter element and centrifuged for 10 minutes at 1,200 rpm and RT. The resulting pellet is respectively taken up in 250 μL of complete medium and the cell count is determined.
The number of cells in the suspension is set to 3×10^5 per ml and 150 μL of this suspension are in each case introduced into a recess in the cell culture plates coated as described hereinbefore. In the incubator the plates are left for two to three days at 37° C., 5% by volume of CO2 and 95% relative humidity. […]

hVR1 [4] = target: T1, hVR1; assay: Functional test on human VR1, 45° C. stimulus; format: cell-based, human being; design: key to IC50 (human being), 45° C.: agonist / partial agonist / no effect: AG=agonist; pAG=partial agonist; NE=no effect; settings: for IC50: read-out: IC50 (human being) [nM], 45° C.
hVR1 [5] = target: T1, hVR1; assay: Functional test on hVR1 after pH stimulus; format: cell-based, human being; design: key to IC50 (human being) hVR1, pH: agonist / partial agonist / no effect: AG=agonist; pAG=partial agonist; NE=no effect; settings: for inhibition at 10 µM: read-out: IC50 (human being) hVR1, pH: inhibition (as a percentage)
[6] = read-out: IC50 (human being), 45° C.: inhibition (as a percentage)

T1 sequence (Q8NER1 whole entry): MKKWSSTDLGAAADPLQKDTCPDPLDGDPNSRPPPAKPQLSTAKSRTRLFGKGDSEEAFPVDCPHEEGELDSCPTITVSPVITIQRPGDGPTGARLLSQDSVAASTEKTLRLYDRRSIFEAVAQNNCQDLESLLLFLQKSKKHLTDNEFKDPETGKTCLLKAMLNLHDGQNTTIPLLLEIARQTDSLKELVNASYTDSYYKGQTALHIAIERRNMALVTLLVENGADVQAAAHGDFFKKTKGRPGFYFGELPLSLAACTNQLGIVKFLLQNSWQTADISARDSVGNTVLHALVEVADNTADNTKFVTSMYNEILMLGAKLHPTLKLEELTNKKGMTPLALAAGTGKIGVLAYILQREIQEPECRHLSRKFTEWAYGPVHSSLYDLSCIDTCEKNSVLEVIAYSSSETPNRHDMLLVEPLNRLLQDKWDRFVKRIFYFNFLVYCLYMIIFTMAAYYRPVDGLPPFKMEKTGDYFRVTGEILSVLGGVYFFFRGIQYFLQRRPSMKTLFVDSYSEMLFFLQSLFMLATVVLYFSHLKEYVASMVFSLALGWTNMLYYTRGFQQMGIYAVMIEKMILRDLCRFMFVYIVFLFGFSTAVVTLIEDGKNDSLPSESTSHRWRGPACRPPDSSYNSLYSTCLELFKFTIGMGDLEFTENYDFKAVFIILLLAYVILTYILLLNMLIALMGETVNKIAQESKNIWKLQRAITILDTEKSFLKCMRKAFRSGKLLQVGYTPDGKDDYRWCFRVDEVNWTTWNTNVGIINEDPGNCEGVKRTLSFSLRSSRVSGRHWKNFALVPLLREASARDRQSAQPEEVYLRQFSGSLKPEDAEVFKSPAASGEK
T2 sequence (O35433 whole entry): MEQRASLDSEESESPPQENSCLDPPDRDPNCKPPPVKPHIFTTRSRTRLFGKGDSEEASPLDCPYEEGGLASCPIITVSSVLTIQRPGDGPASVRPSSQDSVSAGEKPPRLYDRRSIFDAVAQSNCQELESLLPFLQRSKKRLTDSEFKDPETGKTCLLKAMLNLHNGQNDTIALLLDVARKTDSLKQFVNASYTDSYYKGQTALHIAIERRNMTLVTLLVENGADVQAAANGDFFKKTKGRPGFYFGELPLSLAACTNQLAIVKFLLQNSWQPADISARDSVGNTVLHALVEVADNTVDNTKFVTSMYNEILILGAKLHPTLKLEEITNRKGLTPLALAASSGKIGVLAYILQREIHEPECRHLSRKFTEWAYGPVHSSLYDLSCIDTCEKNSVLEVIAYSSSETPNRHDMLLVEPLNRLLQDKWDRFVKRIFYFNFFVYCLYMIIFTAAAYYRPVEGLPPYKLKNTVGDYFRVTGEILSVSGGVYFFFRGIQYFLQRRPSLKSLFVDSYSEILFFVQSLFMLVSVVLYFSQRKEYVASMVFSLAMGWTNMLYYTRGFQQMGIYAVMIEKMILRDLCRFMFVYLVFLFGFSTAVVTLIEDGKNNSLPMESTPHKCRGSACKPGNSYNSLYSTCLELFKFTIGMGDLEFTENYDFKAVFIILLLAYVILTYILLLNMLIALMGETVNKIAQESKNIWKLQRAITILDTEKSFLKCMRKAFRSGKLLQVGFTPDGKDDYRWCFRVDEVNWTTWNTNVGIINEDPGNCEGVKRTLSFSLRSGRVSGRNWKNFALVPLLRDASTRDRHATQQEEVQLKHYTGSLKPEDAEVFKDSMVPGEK

| Compound | Ki (hVR1 [1]; capsaicin (Cap)) | Ki (hVR1 [2]) | Ki [3] | inhibition at 10 µM (hVR1 [5]) | Ki (human being) [nM] Cap: agonist / partial agonist / no effect (hVR1 [1]) | Ki (human being) NADA: agonist / partial agonist / no effect (hVR1 [2]) | further results |
| --- | --- | --- | --- | --- | --- | --- | --- |
| CC(C)(C)c1cc(CNC(=O)Nc2cnc3ccccc3c2)n(-c2cccc(Cl)c2)n1 [Example 113, 1-((3-tert-butyl-1-(3-chlorophenyl)-1H-pyrazol-5-yl)methyl)-3-(quinolin-3-yl)urea] | 70.7 nM | 33.3 nM |  |  |  |  |  |
| CC(C)(C)c1cc(CNC(=O)Cc2ccc3c(c2)OCCO3)n(-c2ccc(Cl)cc2)n1 [Example 12, N-((3-tert-butyl-1-(4-chlorophenyl)-1H-pyrazol-5-yl)methyl)-2-(2,3-dihydrobenzo[b][1,4]dioxin-6-yl)acetamide] | 77.9 nM |  | 135 nM |  |  |  | inhibition at 2 µM (hVR1 [2]; @ 2 μM, read-out: Ki (human being) NADA column: inhibition (as a percentage)): 58%; inhibition at 2 µM (hVR1 [4]; [6]): 18% |
| CC(C(=O)NCc1cc(C(C)(C)C)nn1-c1cccc(Cl)c1)c1ccc2c(c1)CCN2S(C)(=O)=O (centres unmarked) [Example 10, N-((3-tert-butyl-1-(3-chlorophenyl)-1H-pyrazol-5-yl)methyl)-2-(1-(methylsulphonyl)indolin-5-yl)propanamide] | 75.4 nM |  |  | 42% | pAG | pAG | inhibition at 2 µM (hVR1 [4]; [6]): 6% |
| CC(C(=O)NCc1cc(C(C)(C)C)nn1-c1cccc(Cl)c1)c1ccc2cc(O)ccc2c1 (centres unmarked) [Example 49, N-((3-tert-butyl-1-(3-chlorophenyl)-1H-pyrazol-5-yl)methyl)-2-(6-hydroxynaphthalen-2-yl)propanamide] |  |  |  |  | AG | AG | IC50 (human being), 45° C.: agonist / partial agonist / no effect (hVR1 [4]): AG; IC50 (human being) hVR1, pH: agonist / partial agonist / no effect (hVR1 [5]): AG |
| CC(C(=O)NCc1cc(C(C)(C)C)nn1-c1cccc(Cl)c1)c1ccc2cccnc2c1 (centres unmarked) [Example 71, N-((3-tert-butyl-1-(3-chlorophenyl)-1H-pyrazol-5-yl)methyl)-2-(quinolin-7-yl)propanamide] |  | 68.1 nM |  |  |  |  | inhibition at 10 µM (hVR1 [1]; CHO-K1, @ 10 μM, capsaicin (Cap), read-out: Ki (human being) Cap column: inhibition (as a percentage)): 18%; IC50 (hVR1 [4]): 2710 nM |
| CC(C)(C)c1cc(CNC(=O)Nc2cccc3ncccc23)n(-c2cccc(Cl)c2)n1 [Example 111, 1-((3-tert-butyl-1-(3-chlorophenyl)-1H-pyrazol-5-yl)methyl)-3-(quinolin-5-yl)urea] |  |  |  |  | AG | AG | IC50 (human being), 45° C.: agonist / partial agonist / no effect (hVR1 [4]): AG; IC50 (human being) hVR1, pH: agonist / partial agonist / no effect (hVR1 [5]): AG |
| CC(C(=O)NCc1cc(C(C)(C)C)nn1-c1cccc(Cl)c1)c1ccc2nccnc2c1 (centres unmarked) [Example 77, N-((3-tert-butyl-1-(3-chlorophenyl)-1H-pyrazol-5-yl)methyl)-2-(quinoxalin-6-yl)propanamide] | 35.4 nM |  | 34.2 nM | 23% |  |  | inhibition at 10 µM (hVR1 [4]; @ 10 μM, read-out: IC50 (human being), 45° C.: inhibition (as a percentage)): -17% |

The remaining compounds from weak to strong by Ki (hVR1 [1]; capsaicin (Cap)), led by results:

| Ki (hVR1 [1]; capsaicin (Cap)) | Ki (hVR1 [2]) | Ki [3] | inhibition at 10 µM (hVR1 [5]) | Ki (human being) [nM] Cap: agonist / partial agonist / no effect (hVR1 [1]) | Ki (human being) NADA: agonist / partial agonist / no effect (hVR1 [2]) | Compound | further results |
| --- | --- | --- | --- | --- | --- | --- | --- |
| 7.3 nM | 6.4 nM | 18.2 nM |  |  | pAG | CC(C)(C)c1cc(CNC(=O)Nc2cncc3ccccc23)n(-c2cccc(Cl)c2)n1 [Example 112, 1-((3-tert-butyl-1-(3-chlorophenyl)-1H-pyrazol-5-yl)methyl)-3-(isoquinolin-4-yl)urea] |  |
| 4.2 nM | 1.1 nM | 8.4 nM |  |  |  | CC(C(=O)NCc1cc(C(C)(C)C)nn1-c1cccc(Cl)c1)c1ccc2ocnc2c1 (centres unmarked) [Example 40, 2-(benzo[d]oxazol-5-yl)-N-((3-tert-butyl-1-(3-chlorophenyl)-1H-pyrazol-5-yl)methyl)propanamide] |  |
| 1.1 nM | 0.008 nM | 11.2 nM | 13% |  |  | CC(C(=O)NCc1cc(C(F)(F)F)nn1-c1cccc(Cl)c1)c1cccc2[nH]ncc12 (centres unmarked) [Example 27, N-((1-(3-chlorophenyl)-3-(trifluoromethyl)-1H-pyrazol-5-yl)methyl)-2-(1H-indazol-4-yl)propanamide] | IC50 (hVR1 [4]): 297 nM |
| 0.3 nM | 0.04 nM |  | 33% |  |  | CC(C(=O)NCc1cc(C(F)(F)F)nn1-c1ccc(Cl)cc1)c1cccc2cnccc12 (centres unmarked) [Example 68, N-((1-(4-chlorophenyl)-3-(trifluoromethyl)-1H-pyrazol-5-yl)methyl)-2-(isoquinolin-5-yl)propanamide] | IC50 (hVR1 [4]): 245 nM |
| 0.2 nM |  |  |  | pAG | pAG | CC(C)(C)c1cc(CNC(=O)Nc2cccc3cnccc23)n(-c2cccc(Cl)c2)n1 [Example 109, 1-((3-tert-butyl-1-(3-chlorophenyl)-1H-pyrazol-5-yl)methyl)-3-(isoquinolin-5-yl)urea] | IC50 (human being), 45° C.: agonist / partial agonist / no effect (hVR1 [4]): pAG; IC50 (human being) hVR1, pH: agonist / partial agonist / no effect (hVR1 [5]): pAG |
